{"source": "patent US20250051324A1", "about": "“PARP INHIBITOR, PHARMACEUTICAL COMPOSITION COMPRISING SAME, AND USE THEREOF” (KEYTHERA (SUZHOU) BIO-PHARMACEUTICALS CO., LIMITED, priority 2021, published 2025)", "key": {"PARP1 [1]": {"target": "T1, PARP1 (Homo sapiens (Human), UniProt P09874)", "T1 sequence (P09874 whole entry)": "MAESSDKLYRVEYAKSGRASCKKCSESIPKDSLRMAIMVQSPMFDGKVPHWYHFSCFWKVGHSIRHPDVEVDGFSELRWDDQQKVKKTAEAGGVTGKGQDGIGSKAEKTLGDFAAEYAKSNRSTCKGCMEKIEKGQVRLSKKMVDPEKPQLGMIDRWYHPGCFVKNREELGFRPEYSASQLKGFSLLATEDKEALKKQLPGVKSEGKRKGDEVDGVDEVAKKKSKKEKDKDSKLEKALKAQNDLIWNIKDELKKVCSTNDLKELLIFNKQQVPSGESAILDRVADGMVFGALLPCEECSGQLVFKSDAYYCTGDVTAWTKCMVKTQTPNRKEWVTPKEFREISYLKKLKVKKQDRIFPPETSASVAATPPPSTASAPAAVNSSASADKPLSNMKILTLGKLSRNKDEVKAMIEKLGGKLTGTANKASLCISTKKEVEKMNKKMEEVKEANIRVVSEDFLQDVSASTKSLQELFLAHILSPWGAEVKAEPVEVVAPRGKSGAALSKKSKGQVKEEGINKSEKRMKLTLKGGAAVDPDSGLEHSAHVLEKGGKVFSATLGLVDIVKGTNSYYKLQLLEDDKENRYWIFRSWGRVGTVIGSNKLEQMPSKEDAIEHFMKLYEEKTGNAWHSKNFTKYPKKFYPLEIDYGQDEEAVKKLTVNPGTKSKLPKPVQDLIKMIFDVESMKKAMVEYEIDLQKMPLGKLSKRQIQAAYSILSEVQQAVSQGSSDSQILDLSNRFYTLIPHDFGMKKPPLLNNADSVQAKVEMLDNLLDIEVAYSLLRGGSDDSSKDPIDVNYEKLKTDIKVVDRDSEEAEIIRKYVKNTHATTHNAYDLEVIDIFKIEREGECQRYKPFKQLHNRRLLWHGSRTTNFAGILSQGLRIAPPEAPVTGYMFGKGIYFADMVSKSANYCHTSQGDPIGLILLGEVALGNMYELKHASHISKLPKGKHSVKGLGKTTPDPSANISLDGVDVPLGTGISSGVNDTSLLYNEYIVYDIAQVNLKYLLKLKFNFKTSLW", "assay": "PARP enzyme activity assay (PARP1 chemiluminescent assay kit)", "assay_type": "biochemical", "conditions": "enzyme inhibitory activity, read-out: PARP-1 IC50", "summary_of_the_method": "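Chemiluminescent kit measuring PARP1 poly(ADP-ribosylation) of plate-coated histones in presence of activated DNA; compounds in 1:3 serial dilution, top 10 μM before 10-fold buffer dilution. Enzyme (2.5 ng/μL added) reacted 60 min at room temperature, detected by streptavidin-HRP luminescence; IC50 from log-concentration vs % inhibition.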"}, "PARP1 [2]": {"target": "T1, PARP1", "assay": "PARP1 trapping assay", "assay_type": "biochemical", "conditions": "read-out: Inhibitory Effect on PARP1 Trapping IC50", "experimental": "(§1) [table] […] 1. A 4× enzyme reaction mixture, comprising PARP1, PARP2, and GST-Tb antibody, was prepared with the buffer and 4 μL of the enzyme reaction mixture was added to a 384-well plate. 2. A 4×PARP1 and PARP2 probe reaction mixture was prepared with the buffer and 4 μL of the probe reaction mixture was added to the 384-well plate. 3. A series of gradient-diluted compounds were prepared and 4 μL of the diluted compounds were added to the 384-well plate, and incubated at room temperature for 45 minutes. 4. After incubation, 4 μL of 4×NAD reaction mixture was added to the 384-well plate and incubated at room temperature for 10 minutes. 5. After incubation, the plate was read using a plate reader. 6. Data Analysis: The percentage inhibition rate was calculated as follows: Inhibition Rate (%)=(Reading of Compound Group−Reading of Blank Group)/(Reading of Vehicle Control Group−Reading of Blank Group)."}, "PARP2": {"target": "PARP2 (Homo sapiens (Human), UniProt Q9UGN5)", "sequence (Q9UGN5 whole entry)": "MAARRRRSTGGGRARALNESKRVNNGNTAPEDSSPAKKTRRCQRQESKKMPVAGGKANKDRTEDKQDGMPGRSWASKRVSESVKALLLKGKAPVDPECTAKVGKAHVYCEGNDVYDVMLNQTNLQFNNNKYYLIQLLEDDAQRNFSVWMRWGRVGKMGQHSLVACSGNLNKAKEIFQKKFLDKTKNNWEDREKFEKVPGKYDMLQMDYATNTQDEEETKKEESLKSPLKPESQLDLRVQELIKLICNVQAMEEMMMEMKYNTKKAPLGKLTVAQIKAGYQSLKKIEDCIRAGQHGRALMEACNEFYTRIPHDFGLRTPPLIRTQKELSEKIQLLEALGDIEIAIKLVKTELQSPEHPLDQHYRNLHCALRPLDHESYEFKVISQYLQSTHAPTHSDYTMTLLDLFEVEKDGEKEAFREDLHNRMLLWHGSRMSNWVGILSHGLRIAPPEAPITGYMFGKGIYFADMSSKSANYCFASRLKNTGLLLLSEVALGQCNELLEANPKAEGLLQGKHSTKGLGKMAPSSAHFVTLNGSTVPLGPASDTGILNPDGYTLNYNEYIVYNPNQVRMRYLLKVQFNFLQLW", "assay": "PARP2 trapping assay", "assay_type": "biochemical", "conditions": "read-out: Inhibitory Effect on PARP2 Trapping IC50", "experimental": "as §1"}, "[3]": {"tested_on": "UWB1.289 ovarian cancer cells", "assay": "Cell proliferation assay, UWB1.289", "assay_type": "cell-based", "conditions": "UWB1289, 168 h, read-out: UWB1.289 Cell IC50", "experimental": "Experimental Materials: MDA-MB-436 or UWB1.289 cell lines were purchased from Cobioer Biosciences Co. Ltd. (Nanjing, China). The STR identification results were a complete match, and mycoplasma testing was negative. MDA-MB-436 cells were cultured in DMEM complete medium containing 10% fetal bovine serum, 1% penicillin-streptomycin, 1% insulin, and 16 μg/mL glutathione; UWB1.289 cells were cultured in RMPI1640 complete medium containing 10% fetal bovine serum and 1% penicillin-streptomycin.\n1. MDA-MB-436 or UWB1.289 cells were cultured in the aforementioned medium (culture conditions: 37° C., 5.0% CO2 in air) until they reached the logarithmic growth phase. The cells were then digested with trypsin containing 0.25% EDTA, centrifuged at 1000 rpm, and the supernatant was discarded. Cell culture medium was added, and the cell suspension was adjusted to 2×10^4/mL after counting. 135 μL of the cell suspension per well was taken and cultured in a 96-well cell culture plate for 16 hours (culture conditions: 37° C., 5.0% CO2 in air).\n2. The test compounds, stored at a concentration of 10 mM, were diluted 2.5 times with DMSO and then serially diluted in a 1:3 gradient (9 gradients). The gradient-diluted samples were further diluted 40 times with serum-free medium, and 15 μL of each was added to the 96-well cell culture plate. The positive control group received serum-free medium containing the same concentration of DMSO, and the negative control group received medium without cells. The cells were then cultured for an additional 7 days.\n3. After the culture period, the cell culture plate was placed at room temperature for 30 minutes. Then, 100 μL of CellCounting-Lite 2.0 reagent (Vazyme, #DD1101) was added to each well, mixed thoroughly, and incubated in the dark at room temperature for 10 minutes. The luminescence signal was read using a Synergy HTX multi-mode reader.\n4. Data analysis was performed using GraphPad Prism 8.0 software. The inhibition rate (%) was calculated as 100*(average luminescence signal of the positive control group−luminescence signal of the compound)/(average luminescence signal of the positive control group−average luminescence signal of the negative control group). The IC50 value was obtained by plotting the logarithm of the compound concentration against the percentage inhibition rate."}, "[4]": {"tested_on": "MDA-MB-436 breast cancer cells", "assay": "Cell proliferation assay, MDA-MB-436", "assay_type": "cell-based", "conditions": "Homo sapiens, MDA-MB-436, 168 h, read-out: MDA-MB-436 Cell IC50", "summary_of_the_method": "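Cells seeded 16 h, then exposed to a 9-point 1:3 compound dilution series for 7 days at 37° C., 5% CO2; DMSO-matched and cell-free controls. Viability by CellCounting-Lite luminescence; IC50 from log concentration versus % inhibition.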"}, "[5]": {"assay": "Evaluation of pharmacokinetics in rats", "assay_type": "in vivo", "conditions": "male, SD, rat, plasma, 1 mg/kg, oral gavage (PO, 1 mpk)", "description": "Test Animals: 6-8 Week Old Male SD Rats\nFood was restored two hours after dosing."}, "[6]": {"assay": "Liver microsome metabolism assay", "conditions": "CD1, mouse, liver microsomes"}, "[7]": {"assay": "Evaluation of pharmacokinetics in mice", "conditions": "male, ICR (CD1), mouse, plasma, po, 10 mg/kg", "protocol": "(§2) Test Objective: The pharmacokinetics of the example compounds of the present application were tested in mice. By measuring the drug concentration in mouse plasma, the pharmacokinetic behavior of the compounds of the present invention was studied to evaluate their pharmacokinetic characteristics.\n(§3) Test Animals: 6-8 Week Old Male ICR (CD1) Mice\n(§4) Oral Gavage Drug Preparation: An appropriate amount of the test compound was first weighed and dissolved in DMSO (Macklin cas: 67-68-5) to prepare a 20 mg/mL solution. Then, 75 μL of this solution was added to 150 μL of Solutol (Sigma cas: 70142-34-6), followed by 1.275 mL of 20% Captisol (Selleck cas: 182410-00-0), resulting in a final drug concentration of 1 mg/mL.\n(§5) Intravenous Injection Drug Preparation: An appropriate amount of the test compound was first weighed and dissolved in DMSO (Macklin cas: 67-68-5) to prepare a 30 mg/mL solution. Then, 15 μL of this solution was added to 150 μL of Solutol (Sigma cas: 70142-34-6), followed by 1.335 mL of 20% Captisol (Selleck cas: 182410-00-0), resulting in a final drug concentration of 0.3 mg/mL.\n(§6) Procedures: The mice were fasted overnight with free access to water before the experiment. Food was restored two hours after dosing. Blood samples were collected at different time points after intravenous injection or oral gavage of the test compound in mice, and the compound concentration in plasma was measured. Approximately 50 μL of blood was collected from each animal using a capillary sampling tube via the orbital venous plexus, with heparin sodium as an anticoagulant. Blood samples were placed on ice, centrifuged at 3500 r/min for 10 minutes to separate the plasma, and 20 μL of the collected plasma was added to 200 μL of acetonitrile (Merck cas: 75-05-8) containing 200 nM dexamethasone (Selleck cas: 50-02-2) as an internal standard. The mixture was centrifuged at 8000 r/min for 20 minutes. After centrifugation, 150 μL of the supernatant was transferred to a new centrifuge tube, and 150 μL of 0.1% formic acid (Fisher cas: 207868) was added. The mixture was mixed well, and 5 μL of the sample was subjected to quantitative analysis by liquid chromatography-mass spectrometry (Q-TOF LC/MS).\n(§7) The test compound was serially diluted with DMSO to cover the compound concentrations expected in plasma samples to be tested, with a blank sample (containing only DMSO) included.\n(§8) 2 μL of each diluted sample at various concentrations was added to 18 μL of normal ICR mouse plasma, mixed, and then added to 200 μL of acetonitrile (Merck cas: 75-05-8) containing 200 nM dexamethasone (Selleck cas: 50-02-2) as an internal standard. The mixture was centrifuged for 20 minutes (8000 r/min). 150 μL of the supernatant was transferred to a new centrifuge tube, and 150 μL of 0.1% formic acid (Fisher cas: 207868) was added. The mixture was mixed well, and 5 μL of the sample was subjected to quantitative analysis by liquid chromatography-mass spectrometry (Q-TOF LC/MS).\n(§9) The final standard curve was plotted using the concentration of the test compound after dilution on the abscissa and the ratio of the signal of the compound to the internal standard (dexamethasone) on the ordinate. The standard curve was generated using linear regression with GraphPad Prism 8 software (R2>0.9900).\n(§10) Data Analysis: calculation of pharmacokinetic parameters: the concentration of the test compound in plasma at different time points after intravenous injection or oral gavage in ICR mice was determined based on the above standard curve, and pharmacokinetic parameters (T1/2, Cmax, AUC, etc.) were calculated using the Phoenix WinNonlin 8.1 non-compartmental analysis model."}, "in vivo": {"assay": "in vivo", "conditions": "male, ICR (CD1), mouse, po, 10 mg/kg", "protocol": "as §2, §3, §4, §5, §6, §7, §8, §9, §10"}, "in vitro": {"assay": "in vitro", "conditions": "CD1, mouse, microsomes"}}, "note": "Like-named read-outs stand apart in the source and are kept apart here."}
{"smiles": "CNC(=O)c1ccc(N2CCN(Cc3cc4[nH]c(=O)c(C(F)(F)F)c(C)c4cn3)CC2)cn1", "note": "[Compound 2, N-methyl-5-(4-((4-methyl-2-oxo-3-(trifluoromethyl)-1,2-dihydro-1,6-naphthyridin-7-yl)methyl)piperazin-1-yl)picolinamide]", "values": [{"measurement": "IC50", "setting": "PARP1 [1]", "value": 3.14, "unit": "nM"}, {"measurement": "IC50", "setting": "PARP1 [2]", "value": 1.22, "unit": "nM"}, {"measurement": "IC50", "setting": "PARP2", "value": 137, "unit": "nM"}, {"measurement": "IC50", "setting": "[3]", "value": 2.76, "unit": "nM"}, {"measurement": "IC50", "setting": "[4]", "value": 2.32, "unit": "nM"}, {"measurement": "AUC(0-inf)", "setting": "[5]", "value": 19.3, "unit": "µg·h/mL"}, {"measurement": "Cmax", "setting": "[5]", "value": 2000, "unit": "ng/mL"}, {"measurement": "half-life", "setting": "[5]", "value": 5.07, "unit": "h"}, {"measurement": "microsomal CLint at 1 µM", "setting": "[6]", "value": 0.39, "unit": "µL/min/mg"}]}
{"smiles": "CNC(=O)c1ccc(C2=CCN(Cc3cnc4c(C)c(C(F)(F)F)c(=O)[nH]c4c3)CC2)cn1", "note": "[Compound 14, N-methyl-1′-((8-methyl-6-oxo-7-(trifluoromethyl)-5,6-dihydro-1,5-naphthyridin-3-yl)methyl)-1′,2′,3′,6′-tetrahydro-[3,4′-bipyridine]-6-carboxamide]", "values": [{"measurement": "IC50", "setting": "PARP1 [1]", "value": 0.83, "unit": "nM"}, {"measurement": "IC50", "setting": "PARP1 [2]", "value": 1.38, "unit": "nM"}, {"measurement": "IC50", "setting": "PARP2", "value": 176, "unit": "nM"}, {"measurement": "IC50", "setting": "[3]; proliferation, 7 days", "value": 4.93, "unit": "nM"}, {"measurement": "IC50", "setting": "[4]; proliferation, 7 days", "value": 2.38, "unit": "nM"}, {"measurement": "AUC(0-inf)", "setting": "[5]", "value": 19.2, "unit": "µg·h/mL"}, {"measurement": "Cmax", "setting": "[5]", "value": 1770, "unit": "ng/mL"}, {"measurement": "half-life", "setting": "[5]", "value": 6.35, "unit": "h"}, {"measurement": "AUC(0-inf)", "setting": "[7]", "value": 2720, "unit": "µg·h/mL"}, {"measurement": "Cmax", "setting": "[7]", "value": 128000, "unit": "ng/mL"}, {"measurement": "half-life", "setting": "[7]", "value": 27.8, "unit": "h"}]}
{"smiles": "CNC(=O)c1ccc(N2CCN(Cc3cnc4c(C)c(C(F)(F)F)c(=O)[nH]c4c3)[C@@H](C)C2)cn1", "note": "[Compound 52, (S)—N-methyl-5-(3-methyl-4-((8-methyl-6-oxo-7-(trifluoromethyl)-5,6-dihydro-1,5-naphthyridin-3-yl)methyl)piperazin-1-yl)picolinamide]", "values": [{"measurement": "IC50", "setting": "PARP1 [2]", "value": 1.6, "unit": "nM"}, {"measurement": "IC50", "setting": "PARP2", "value": 271, "unit": "nM"}, {"measurement": "IC50", "setting": "[3]; proliferation, 7 days", "value": 11.2, "unit": "nM"}, {"measurement": "IC50", "setting": "[4]; proliferation, 7 days", "value": 5.05, "unit": "nM"}, {"measurement": "AUC(0-inf)", "setting": "[5]", "value": 18.8, "unit": "µg·h/mL"}, {"measurement": "Cmax", "setting": "[5]", "value": 1450, "unit": "ng/mL"}, {"measurement": "half-life", "setting": "[5]", "value": 5.67, "unit": "h"}, {"measurement": "AUC(0-inf)", "setting": "[7]", "value": 1550, "unit": "µg·h/mL"}, {"measurement": "Cmax", "setting": "[7]", "value": 50200, "unit": "ng/mL"}, {"measurement": "half-life", "setting": "[7]", "value": 25.9, "unit": "h"}]}
{"smiles": "CNC(=O)c1ccc(N2CCN(Cc3cnc4c(C)c(C(F)(F)F)c(=O)[nH]c4c3)C[C@H]2C)cn1", "note": "[Compound 54, (R)—N-methyl-5-(2-methyl-4-((8-methyl-6-oxo-7-(trifluoromethyl)-5,6-dihydro-1,5-naphthyridin-3-yl)methyl)piperazin-1-yl)picolinamide]", "values": [{"measurement": "IC50", "setting": "PARP1 [2]", "value": 1.31, "unit": "nM"}, {"measurement": "IC50", "setting": "PARP2", "value": 192, "unit": "nM"}, {"measurement": "IC50", "setting": "[3]; proliferation, 7 days", "value": 3.34, "unit": "nM"}, {"measurement": "IC50", "setting": "[4]; proliferation, 7 days", "value": 4.32, "unit": "nM"}, {"measurement": "AUC(0-inf)", "setting": "[5]", "value": 16.8, "unit": "µg·h/mL"}, {"measurement": "Cmax", "setting": "[5]", "value": 1690, "unit": "ng/mL"}, {"measurement": "half-life", "setting": "[5]", "value": 7.2, "unit": "h"}, {"measurement": "AUC(0-inf)", "setting": "[7]", "value": 987, "unit": "µg·h/mL"}, {"measurement": "Cmax", "setting": "[7]", "value": 48200, "unit": "ng/mL"}, {"measurement": "half-life", "setting": "[7]", "value": 17.9, "unit": "h"}]}
{"smiles": "CNC(=O)c1cnc(C2=CCN(Cc3cnc4c(C)c(C(F)(F)F)c(=O)[nH]c4c3)CC2)cn1", "note": "[Compound 79, N-methyl-5-(1-((8-methyl-6-oxo-7-(trifluoromethyl)-5,6-dihydro-1,5-naphthyridin-3-yl)methyl)-1,2,3,6-tetrahydropyridin-4-yl)pyrazine-2-carboxamide]", "values": [{"measurement": "IC50", "setting": "[4]; proliferation, 7 days", "value": 18.5, "unit": "nM"}, {"measurement": "AUC(0-inf)", "setting": "in vivo", "value": 2420, "unit": "µg·h/mL"}, {"measurement": "Cmax", "setting": "in vivo", "value": 57000, "unit": "ng/mL"}, {"measurement": "half-life", "setting": "in vivo", "value": 30.5, "unit": "h"}, {"measurement": "microsomal CLint at 1 µM", "setting": "in vitro", "value": 0.69, "unit": "µL/min/mg"}]}
{"smiles": "CNC(=O)c1ccc(C2=CCN(Cc3cc4[nH]c(=O)c(C(F)(F)F)c(C)c4cn3)CC2)cn1", "note": "[Compound 89, N-methyl-1′-((4-methyl-2-oxo-3-(trifluoromethyl)-1,2-dihydro-1,6-naphthyridin-7-yl)methyl)-1′,2′,3′,6′-tetrahydro-[3,4′-bipyridine]-6-carboxamide]", "values": [{"measurement": "IC50", "setting": "PARP1 [2]", "value": 1.53, "unit": "nM"}, {"measurement": "IC50", "setting": "[4]; proliferation, 7 days", "value": 1.06, "unit": "nM"}, {"measurement": "microsomal CLint at 1 µM", "setting": "in vitro", "value": 0.81, "unit": "µL/min/mg"}]}
